According to patent US6855714B2, “1-alkyl-2-aryl-benzimidazole derivatives, their use for the production of pharmaceutical agents as well as pharmaceutical preparations that contain these derivatives” (Schering Aktiengesellschaft, priority 2001, dated 2005):

Test system: primary rat microglia
Assay: Inhibition of microglia activation (Aβ peptide stimulation, MTS reduction)
Assay type: cell-based
Conditions: Aβ-activated primary rat microglia, MTS reduction on day 7, compound added on day 5; read-out: IC50 in the Microglia Inhibition Test
Method: For in vitro production of Aβ-activated microglia, primary rat microglia are incubated with synthetic Aβ peptide:
To simulate Aβ deposits, synthetic Aβ peptide is dried on 96-hole tissue culture plates. A peptide stock solution of 2 mg/ml of H2O 1:50 in H2O, is diluted in this. To coat the 96-hole plates, 30 μL of this dilute peptide solution/hole is used and dried overnight at room temperature.
Primary rat microglia are harvested from mixed glia cultures, which were obtained from P3 rat brains. For the production of mixed glia cultures, the brains are removed from 3-day-old rats and meninges are removed therefrom. The isolation of cells is achieved by trypsinization (0.25% trypsin solution, 15 minutes 37° C.)). After undigested tissue fragments are separated with the aid of a 40 µm nylon mesh, the isolated cells are centrifuged off (800 rpm/10 minutes). The cell pellet is resuspended in culture medium and moved into 100 ml tissue culture flasks (1 brain/tissue culture flask). […]
To quantify the microglia reactivity, the metabolic activity is measured on cultivation day 7 via the reduction of MTS (3-(4,5-dimethylthiazol-2-yl)-5-(3carboxymethoxyphenyl)-2-(sulfophenyl)-2H-tetrazolium), Owen's reagent, Baltrop, J. A. et al., Bioorg. & Med. Chem. Lett., 1, 6111 (1991)). […]

| Compound | IC50 [nM] |
| --- | --- |
| COCCCn1c(-c2ccccc2)nc2ccc(OCCCCCC(=O)OC)cc21 [6-[(5-(Methoxycarbonyl)pentyl)oxy]-1-(3-methoxy-n-propyl)-2-phenyl-benzimidazole] | 650 |
| COC(=O)CCCCCOc1ccc2nc(-c3ccc(OC)cc3)n(CCCN(C)C(C)=O)c2c1 [6-[(5-(Methoxycarbonyl)pentyl)oxy]-2-(4-methoxy-phenyl)-1-[3-(N-methyl-N-(methylcarbonyl)amino)propyl]-benzimidazole] | 390 |
